# From patent publication US4089965A, “Thiazolylphenylguanidines as antirhinovirus agents” (American Cyanamid Company, priority 1977, dated 1978)
# Assays:
# Rhinovirus Serotype 1B [1] = assay: Plaque assay, minimal inhibitory concentration; type: cell-based; details: Enterovirus, inhibiting virus plaque formation by 50%
# Rhinovirus Serotype 3 = assay: Plaque assay, minimal inhibitory concentration; type: cell-based; details: Enterovirus; HeLa Cells; inhibiting virus plaque formation by 50%
# Rhinovirus Serotype 5 = assay: Plaque assay, minimal inhibitory concentration; type: cell-based; details: Enterovirus; HeLa Cells; inhibiting virus plaque formation by 50%
# Rhinovirus Serotype 52 = assay: Plaque assay, minimal inhibitory concentration; type: cell-based; details: Enterovirus; HeLa Cells; inhibiting virus plaque formation by 50%
# Coxsackievirus A-5 = assay: Plaque assay, minimal inhibitory concentration; type: cell-based; details: HeLa Cells, inhibiting virus plaque formation by 50%
# Coxsackievirus A-11 = assay: Plaque assay, minimal inhibitory concentration; type: cell-based; details: HeLa Cells, inhibiting virus plaque formation by 50%
# Coxsackievirus A-22 = assay: Plaque assay, minimal inhibitory concentration; type: cell-based; details: HeLa Cells, inhibiting virus plaque formation by 50%
# Coxsackievirus B-1 = assay: Plaque assay, minimal inhibitory concentration; type: cell-based; details: HeLa Cells, inhibiting virus plaque formation by 50%
# Coxsackievirus B-2 = assay: Plaque assay, minimal inhibitory concentration; type: cell-based; details: HeLa Cells, inhibiting virus plaque formation by 50%
# Rhinovirus Serotype 1B [2] = assay: Virus Yield Reduction Test; type: cell-based; details: for Virus yield: HeLa
# rhinovirus 32 [3] = type: in vivo, human; details: neutralization test, rhinovirus type 32
# rhinovirus 32 [4] = assay: Clinical challenge study, virus isolation from nasal washings; type: in vivo, human; details: individual subjects on medication, intranasal; + or 0
# Rhinovirus Type 10 = assay: Viral sensitivity, filter disc method; type: cell-based; details: strain 204CV14; about 50 mcg per disc, HeLa
# Method: (§1) In the test for viral sensitivity, by the filter disc method, 5 mg. of 1-(4-phenyl-2-thiazolyl)-3-phenylguanidine was dissolved in 1-2 drops of dimethylsulfoxide and 2.5 ml. of saline. Filter paper discs, when saturated with the solution, absorbed about 50 mcg. of the compound.
# (§2) Sensitivity tests were performed by a modification of the method of Herrmann, et al., Proc. Soc. Exp. Biol. & Med., 103, 625 (1960). HeLa monolayers in 150 mm plastic dishes were infected with 1.0 ml. of rhinovirus suspension known to produce destruction of 80-90% of the cells in 4 to 5 days. Following viral adsorption, the cells were overlayed with 30 ml. of Eagle's minimum essential medium containing Noble agar at 0.5%, bovine fetal serum at 2.0%, diethylaminoethyl dextran at 100 mcg/ml. and magnesium chloride at 3 millimoles. Filter discs (1/4 inch Carl Schleicher and Schuell Co., No. 740E), containing about 50 mcg. of 1-(4-phenyl-2-thiazolyl)-3-phenylguanidine, were placed on the solidified surface and the culture plates incubated at 33° C. After 4 to 5 days, the overlay medium was decanted and the cells stained with 0.1% crystal violet in 20% ethanol. A zone of 10 mm or more in which at least two-thirds of the cells were protected from viral cytopathic effects, indicates antiviral activity. The following Table III lists 35 rhinovirus serotypes which were inhibited by this compound.
# Rhinovirus Type 13 = assay: Viral sensitivity, filter disc method; type: cell-based; details: strain 353; about 50 mcg per disc, HeLa
# Method: as §1, §2
# Rhinovirus Type 16 = assay: Viral sensitivity, filter disc method; type: cell-based; details: strain 11757; about 50 mcg per disc, HeLa
# Method: as §1, §2
# Rhinovirus Type 22 = assay: Viral sensitivity, filter disc method; type: cell-based; details: strain 127CV22; about 50 mcg per disc, HeLa
# Method: as §1, §2
# Rhinovirus Type 24 = assay: Viral sensitivity, filter disc method; type: cell-based; details: strain 5146CV25; about 50 mcg per disc, HeLa
# Method: as §1, §2
# Rhinovirus Type 25 = assay: Viral sensitivity, filter disc method; type: cell-based; details: strain 5426CV26; about 50 mcg per disc, HeLa
# Method: as §1, §2
# Rhinovirus Type 26 = assay: Viral sensitivity, filter disc method; type: cell-based; details: strain 5660CV27; about 50 mcg per disc, HeLa
# Method: as §1, §2
# Rhinovirus Type 2 = assay: Viral sensitivity, filter disc method; type: cell-based; details: strain HGP; about 50 mcg per disc, HeLa
# Method: as §1, §2
# Rhinovirus Type 34 = assay: Viral sensitivity, filter disc method; type: cell-based; details: strain 137-3; about 50 mcg per disc, HeLa
# Method: as §1, §2
# Rhinovirus Type 36 = assay: Viral sensitivity, filter disc method; type: cell-based; details: strain 342H; about 50 mcg per disc, HeLa
# Method: as §1, §2
# Rhinovirus Type 38 = assay: Viral sensitivity, filter disc method; type: cell-based; details: strain CH79; about 50 mcg per disc, HeLa
# Method: as §1, §2
# Rhinovirus Type 41 = assay: Viral sensitivity, filter disc method; type: cell-based; details: strain 56110; about 50 mcg per disc, HeLa
# Method: as §1, §2
# Rhinovirus Type 46 = assay: Viral sensitivity, filter disc method; type: cell-based; details: strain Baylor 2; about 50 mcg per disc, HeLa
# Method: as §1, §2
# Rhinovirus Type 47 = assay: Viral sensitivity, filter disc method; type: cell-based; details: strain 1979MCV46; about 50 mcg per disc, HeLa
# Method: as §1, §2
# Rhinovirus Type 49 = assay: Viral sensitivity, filter disc method; type: cell-based; details: strain 8213; about 50 mcg per disc, HeLa
# Method: as §1, §2
# Rhinovirus Type 53 = assay: Viral sensitivity, filter disc method; type: cell-based; details: strain FO13928; about 50 mcg per disc, HeLa
# Method: as §1, §2
# Rhinovirus strain 2 = assay: Protection of tissue from cytopathic effects (plaque inhibition, filter paper disc or agar overlay); details: 33°, 3 to 5 days
# Rhinovirus strain 14 = assay: as above; details: 33°, 3 to 5 days
compound,measurement,setting,value
N=C(Nc1ccccc1)Nc1nc(-c2ccccc2)cs1 [1-(4-phenyl-2-thiazolyl)-3-phenylguanidine],IC50,"Rhinovirus Serotype 1B [1]; L132, L-132 Cells",0.8 µg/mL
same,IC50,Rhinovirus Serotype 1B [1]; HeLa Cells,0.8 to 1.6 µg/mL
same,IC50,Rhinovirus Serotype 3,0.4 to 0.8 µg/mL
same,IC50,Rhinovirus Serotype 5,0.4 to 0.8 µg/mL
same,IC50,Rhinovirus Serotype 52,0.4 µg/mL
same,IC50,Coxsackievirus A-5,0.4 µg/mL
same,IC50,Coxsackievirus A-11,1.6 to 3.1 µg/mL
same,IC50,Coxsackievirus A-22,1.6 to 3.1 µg/mL
same,IC50,Coxsackievirus B-1,1.6 to 3.1 µg/mL
same,IC50,Coxsackievirus B-2,0.8 to 1.6 µg/mL
same,suppression of virus yield,"Rhinovirus Serotype 1B [2]; 24 hours, cultures treated with 0.4 to 0.8 mcg/ml",1-2 logs
same,Virus yield,"Rhinovirus Serotype 1B [2]; 0.4 mcg/ml, 0 Hour to +6 Hour, 24 Hours, no drug 7.0",5.2 Plaque-Forming Units/ml. (Log
same,Virus yield,"Rhinovirus Serotype 1B [2]; 0.4 mcg/ml, 0 Hour to +6 Hour, 48 Hours, no drug 7.0",5.8 Plaque-Forming Units/ml. (Log
same,Virus yield,"Rhinovirus Serotype 1B [2]; 0.4 mcg/ml, +1 Hour to +7 Hour, 24 Hours, no drug 7.0",6.4 Plaque-Forming Units/ml. (Log
same,Virus yield,"Rhinovirus Serotype 1B [2]; 0.4 mcg/ml, +1 Hour to +7 Hour, 48 Hours, no drug 7.2",7.1 Plaque-Forming Units/ml. (Log
same,Virus yield,"Rhinovirus Serotype 1B [2]; 0.8 mcg/ml, 0 Hour to +6 Hour, 24 Hours, no drug 7.0",5.7 Plaque-Forming Units/ml. (Log
same,Virus yield,"Rhinovirus Serotype 1B [2]; 0.8 mcg/ml, 0 Hour to +6 Hour, 48 Hours, no drug 7.0",6.3 Plaque-Forming Units/ml. (Log
same,Virus yield,"Rhinovirus Serotype 1B [2]; 0.8 mcg/ml, +1 Hour to +7 Hour, 24 Hours, no drug 7.0",6.0 Plaque-Forming Units/ml. (Log
same,Virus yield,"Rhinovirus Serotype 1B [2]; 0.8 mcg/ml, +1 Hour to +7 Hour, 48 Hours, no drug 7.2",7.4 Plaque-Forming Units/ml. (Log
same,Virus yield,"Rhinovirus Serotype 1B [2]; 1.6 mcg/ml, 0 Hour to +6 Hour, 24 Hours, no drug 7.0",5.5 Plaque-Forming Units/ml. (Log
same,Virus yield,"Rhinovirus Serotype 1B [2]; 1.6 mcg/ml, 0 Hour to +6 Hour, 48 Hours, no drug 7.0",6.2 Plaque-Forming Units/ml. (Log
same,Virus yield,"Rhinovirus Serotype 1B [2]; 1.6 mcg/ml, +1 Hour to +7 Hour, 24 Hours, no drug 7.0",5.4 Plaque-Forming Units/ml. (Log
same,Virus yield,"Rhinovirus Serotype 1B [2]; 1.6 mcg/ml, +1 Hour to +7 Hour, 48 Hours, no drug 7.2",6.6 Plaque-Forming Units/ml. (Log
same,Virus yield,"Rhinovirus Serotype 1B [2]; 3.1 mcg/ml, 0 Hour to +6 Hour, 24 Hours, no drug 7.0",5.5 Plaque-Forming Units/ml. (Log
same,Virus yield,"Rhinovirus Serotype 1B [2]; 3.1 mcg/ml, 0 Hour to +6 Hour, 48 Hours, no drug 7.0",6.1 Plaque-Forming Units/ml. (Log
same,Virus yield,"Rhinovirus Serotype 1B [2]; 3.1 mcg/ml, +1 Hour to +7 Hour, 24 Hours, no drug 7.0",4.7 Plaque-Forming Units/ml. (Log
same,Virus yield,"Rhinovirus Serotype 1B [2]; 3.1 mcg/ml, +1 Hour to +7 Hour, 48 Hours, no drug 7.2",6.3 Plaque-Forming Units/ml. (Log
same,Virus yield,"Rhinovirus Serotype 1B [2]; 6.2 mcg/ml, 0 Hour to +6 Hour, 24 Hours, no drug 7.0",5.8 Plaque-Forming Units/ml. (Log
same,Virus yield,"Rhinovirus Serotype 1B [2]; 6.2 mcg/ml, 0 Hour to +6 Hour, 48 Hours, no drug 7.0",6.1 Plaque-Forming Units/ml. (Log
same,Virus yield,"Rhinovirus Serotype 1B [2]; 6.2 mcg/ml, +1 Hour to +7 Hour, 24 Hours, no drug 7.0",4.5 Plaque-Forming Units/ml. (Log
same,Virus yield,"Rhinovirus Serotype 1B [2]; 6.2 mcg/ml, +1 Hour to +7 Hour, 48 Hours, no drug 7.2",5.6 Plaque-Forming Units/ml. (Log
same,Virus yield,"Rhinovirus Serotype 1B [2]; 12.5 mcg/ml, +1 Hour to +7 Hour, 24 Hours, no drug 7.0",3.8 Plaque-Forming Units/ml. (Log
same,Virus yield,"Rhinovirus Serotype 1B [2]; 12.5 mcg/ml, +1 Hour to +7 Hour, 48 Hours, no drug 7.2",5.2 Plaque-Forming Units/ml. (Log
same,antibody response of the treated subject who became clinically infected,rhinovirus 32 [3],no antibody response
same,Virus Isolation From Nasal Washings,rhinovirus 32 [4],0
same,inhibition of rhinovirus serotype (zone of 10 mm or more),Rhinovirus Type 10,inhibited
same,inhibition of rhinovirus serotype (zone of 10 mm or more),Rhinovirus Type 13,inhibited
same,inhibition of rhinovirus serotype (zone of 10 mm or more),Rhinovirus Type 16,inhibited
same,inhibition of rhinovirus serotype (zone of 10 mm or more),Rhinovirus Type 22,inhibited
same,inhibition of rhinovirus serotype (zone of 10 mm or more),Rhinovirus Type 24,inhibited
same,inhibition of rhinovirus serotype (zone of 10 mm or more),Rhinovirus Type 25,inhibited
same,inhibition of rhinovirus serotype (zone of 10 mm or more),Rhinovirus Type 26,inhibited
same,inhibition of rhinovirus serotype (zone of 10 mm or more),Rhinovirus Type 2,inhibited
same,inhibition of rhinovirus serotype (zone of 10 mm or more),Rhinovirus Type 34,inhibited
same,inhibition of rhinovirus serotype (zone of 10 mm or more),Rhinovirus Type 36,inhibited
same,inhibition of rhinovirus serotype (zone of 10 mm or more),Rhinovirus Type 38,inhibited
same,inhibition of rhinovirus serotype (zone of 10 mm or more),Rhinovirus Type 41,inhibited
same,inhibition of rhinovirus serotype (zone of 10 mm or more),Rhinovirus Type 46,inhibited
same,inhibition of rhinovirus serotype (zone of 10 mm or more),Rhinovirus Type 47,inhibited
same,inhibition of rhinovirus serotype (zone of 10 mm or more),Rhinovirus Type 49,inhibited
same,inhibition of rhinovirus serotype (zone of 10 mm or more),Rhinovirus Type 53,inhibited
same,Protection of tissue from destruction by virus,Rhinovirus strain 2,+
same,Protection of tissue from destruction by virus,Rhinovirus strain 14,+
